From patent US20260250290A1 (BRISTOL-MYERS SQUIBB COMPANY, priority 2023, published 2026)
Structures can show the parent of a compound that is named as a salt.

biological target: T1, SGK1 (Homo sapiens, UniProt O00141); assay: SGK1 inhibition Assay B (Echo mass spectrometry of phosphorylated peptide product); format: biochemical; settings: 60 min at room temperature
T1 sequence (O00141 1-431): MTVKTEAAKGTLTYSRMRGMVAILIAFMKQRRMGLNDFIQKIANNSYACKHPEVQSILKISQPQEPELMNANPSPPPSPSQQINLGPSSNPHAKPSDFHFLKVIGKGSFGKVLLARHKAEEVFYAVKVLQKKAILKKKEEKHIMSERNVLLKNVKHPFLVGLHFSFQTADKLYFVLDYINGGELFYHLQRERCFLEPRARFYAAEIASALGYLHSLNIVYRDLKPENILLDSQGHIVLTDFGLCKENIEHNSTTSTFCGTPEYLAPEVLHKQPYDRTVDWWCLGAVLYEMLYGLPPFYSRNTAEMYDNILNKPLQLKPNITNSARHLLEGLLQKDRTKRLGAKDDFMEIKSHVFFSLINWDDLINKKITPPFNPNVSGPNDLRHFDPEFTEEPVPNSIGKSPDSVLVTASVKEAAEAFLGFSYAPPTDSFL

| Compound | IC50 |
| --- | --- |
| CC(C)N1CC2(CN(c3cccc(C(=O)N[C@@H]4CCCN(c5cc(-c6ccc(S(C)(=O)=O)c(F)c6)n6ncnc(N)c56)C4)n3)C2)C1 [Example 833, (R)-N-(1-(4-amino-7-(3-fluoro-4-(methylsulfonyl)phenyl)pyrrolo[2,1-f][1,2,4]triazin-5-yl)piperidin-3-yl)-6-(6-isopropyl-2,6-diazaspiro[3.3]heptan-2-yl)picolinamide] | 9 nM |
| CC(C)N1CC2(CN(c3cccc(C(=O)N[C@@H]4CCCN(c5cc(-c6ccc(S(C)(=O)=O)nc6)n6ncnc(N)c56)C4)n3)C2)C1 [Example 834, (R)-N-(1-(4-amino-7-(6-(methylsulfonyl)pyridin-3-yl)pyrrolo[2,1-f][1,2,4]triazin-5-yl)piperidin-3-yl)-6-(6-isopropyl-2,6-diazaspiro[3.3]heptan-2-yl)picolinamide] | 20 nM |
| CNC(=O)c1ccc(-c2cc(N3CCC[C@@H](NC(=O)c4sc(Cl)cc4OCCN(C)C)C3)c3c(N)ncnn23)cn1 [Example 835, (R)-5-(4-amino-5-(3-(5-chloro-3-(2-(dimethylamino)ethoxy)thiophene-2-carboxamido)piperidin-1-yl)pyrrolo[2,1-f][1,2,4]triazin-7-yl)-N-methylpicolinamide] | 13 nM |
| CN1C2CCC1CC(Oc1cc(Cl)sc1C(=O)NC1CCCN(c3cc(-c4cnn(C(F)F)c4)n4ncnc(N)c34)C1)C2 [Example 836, N-((R)-1-(4-amino-7-(1-(difluoromethyl)-1H-pyrazol-4-yl)pyrrolo[2,1-f][1,2,4]triazin-5-yl)piperidin-3-yl)-5-chloro-3-(((1R,3s,5S)-8-methyl-8-azabicyclo[3.2.1]octan-3-yl)oxy)thiophene-2-carboxamide] | 2 nM |
| CN1[C@@H]2CC[C@H]1C[C@H](Oc1cc(Cl)sc1C(=O)N[C@@H]1CCCN(c3cc(-c4ccc(-n5cccn5)cc4)n4ncnc(N)c34)C1)C2 [Example 837, N-((R)-1-(7-(4-(1H-pyrazol-1-yl)phenyl)-4-aminopyrrolo[2,1-f][1,2,4]triazin-5-yl)piperidin-3-yl)-5-chloro-3-(((1R,3s,5S)-8-methyl-8-azabicyclo[3.2.1]octan-3-yl)oxy)thiophene-2-carboxamide] | 4 nM |
| CC(=O)c1ccc(-c2cc(N3CCC[C@@H](NC(=O)c4sc(Cl)cc4O[C@@H]4C[C@H]5CC[C@@H](C4)N5C)C3)c3c(N)ncnn23)cn1 [Example 838, N-((R)-1-(7-(6-acetylpyridin-3-yl)-4-aminopyrrolo[2,1-f][1,2,4]triazin-5-yl)piperidin-3-yl)-5-chloro-3-(((1R,3s,5S)-8-methyl-8-azabicyclo[3.2.1]octan-3-yl)oxy)thiophene-2-carboxamide] | 2 nM |
| CC(=O)c1ccc(-c2cc(N3CCC[C@@H](NC(=O)c4sc(Cl)cc4O[C@@H]4C[C@H]5CC[C@@H](C4)N5C)C3)c3c(N)ncnn23)cc1F [Example 839, N-((R)-1-(7-(4-acetyl-3-fluorophenyl)-4-aminopyrrolo[2,1-f][1,2,4]triazin-5-yl)piperidin-3-yl)-5-chloro-3-(((1R,3s,5S)-8-methyl-8-azabicyclo[3.2.1]octan-3-yl)oxy)thiophene-2-carboxamide] | 2 nM |
| CN1[C@@H]2CC[C@H]1C[C@H](Oc1cc(Cl)sc1C(=O)N[C@@H]1CCCN(c3cc(-c4ccc(C(F)(F)F)c(F)c4)n4ncnc(N)c34)C1)C2 [Example 841, N-((R)-1-(4-amino-7-(3-fluoro-4-(trifluoromethyl)phenyl)pyrrolo[2,1-f][1,2,4]triazin-5-yl)piperidin-3-yl)-5-chloro-3-(((1R,3s,5S)-8-methyl-8-azabicyclo[3.2.1]octan-3-yl)oxy)thiophene-2-carboxamide] | 17 nM |
| CN1[C@@H]2CC[C@H]1C[C@H](Oc1cc(Cl)sc1C(=O)N[C@@H]1CCCN(c3cc(-c4cnc(-n5cnnn5)c(F)c4)n4ncnc(N)c34)C1)C2 [Example 843, N-((R)-1-(4-amino-7-(5-fluoro-6-(1H-tetrazol-1-yl)pyridin-3-yl)pyrrolo[2,1-f][1,2,4]triazin-5-yl)piperidin-3-yl)-5-chloro-3-(((1R,3s,5S)-8-methyl-8-azabicyclo[3.2.1]octan-3-yl)oxy)thiophene-2-carboxamide] | 2 nM |
| Cc1cc(O[C@@H]2C[C@H]3CC[C@@H](C2)N3C)c(C(=O)N[C@@H]2CCCN(c3cc(-c4cc(F)c(-n5cnnn5)c(F)c4)n4ncnc(N)c34)C2)s1 [Example 844, N-((R)-1-(4-amino-7-(3,5-difluoro-4-(1H-tetrazol-1-yl)phenyl)pyrrolo[2,1-f][1,2,4]triazin-5-yl)piperidin-3-yl)-5-methyl-3-(((1R,3s,5S)-8-methyl-8-azabicyclo[3.2.1]octan-3-yl)oxy)thiophene-2-carboxamide] | 3 nM |
| Cc1cc(O[C@@H]2C[C@H]3CC[C@@H](C2)N3C)c(C(=O)N[C@@H]2CCCN(c3cc(-c4cnc(-n5cnnn5)c(F)c4)n4ncnc(N)c34)C2)s1 [Example 845, N-((R)-1-(4-amino-7-(5-fluoro-6-(1H-tetrazol-1-yl)pyridin-3-yl)pyrrolo[2,1-f][1,2,4]triazin-5-yl)piperidin-3-yl)-5-methyl-3-(((1R,3s,5S)-8-methyl-8-azabicyclo[3.2.1]octan-3-yl)oxy)thiophene-2-carboxamide, TFA salt] | 3 nM |
| CC(=O)c1ccc(-c2cc(N3CCC[C@@H](NC(=O)c4sc(C)cc4O[C@@H]4C[C@H]5CC[C@@H](C4)N5C)C3)c3c(N)ncnn23)cn1 [Example 846, N-((R)-1-(7-(6-acetylpyridin-3-yl)-4-aminopyrrolo[2,1-f][1,2,4]triazin-5-yl)piperidin-3-yl)-5-methyl-3-(((1R,3s,5S)-8-methyl-8-azabicyclo[3.2.1]octan-3-yl)oxy)thiophene-2-carboxamide] | 16 nM |
| Cc1cc(O[C@@H]2C[C@H]3CC[C@@H](C2)N3C)c(C(=O)N[C@@H]2CCCN(c3cc(-c4ccc(-n5cnnn5)c(F)c4)n4ncnc(N)c34)C2)s1 [Example 847, N-((R)-1-(4-amino-7-(3-fluoro-4-(1H-tetrazol-1-yl)phenyl)pyrrolo[2,1-f][1,2,4]triazin-5-yl)piperidin-3-yl)-5-methyl-3-(((1R,3s,5S)-8-methyl-8-azabicyclo[3.2.1]octan-3-yl)oxy)thiophene-2-carboxamide, TFA salt] | 2 nM |
| Cc1cc(O[C@@H]2C[C@H]3CC[C@@H](C2)N3C)c(C(=O)N[C@@H]2CCCN(c3cc(-c4cnn(C(F)F)c4)n4ncnc(N)c34)C2)s1 [Example 848, N-((R)-1-(4-amino-7-(1-(difluoromethyl)-1H-pyrazol-4-yl)pyrrolo[2,1-f][1,2,4]triazin-5-yl)piperidin-3-yl)-5-methyl-3-(((1R,3s,5S)-8-methyl-8-azabicyclo[3.2.1]octan-3-yl)oxy)thiophene-2-carboxamide, TFA salt] | 6 nM |
| CN1CCN(c2nccc(C(=O)N[C@@H]3CCCN(c4cc(-c5ccc(-n6cnnn6)c(F)c5)n5ncnc(N)c45)C3)n2)CC1 [Example 849, (R)-N-(1-(4-amino-7-(3-fluoro-4-(1H-tetrazol-1-yl)phenyl)pyrrolo[2,1-f][1,2,4]triazin-5-yl)piperidin-3-yl)-2-(4-methylpiperazin-1-yl)pyrimidine-4-carboxamide] | 2 nM |
| Cc1cc(-c2cc(N3CCC[C@@H](NC(=O)c4ccnc(N5CCN(C)CC5)n4)C3)c3c(N)ncnn23)ccc1-n1cnnn1 [Example 850, (R)-N-(1-(4-amino-7-(3-methyl-4-(1H-tetrazol-1-yl)phenyl)pyrrolo[2,1-f][1,2,4]triazin-5-yl)piperidin-3-yl)-2-(4-methylpiperazin-1-yl)pyrimidine-4-carboxamide] | 10 nM |
| CC(=O)c1ccc(-c2cc(N3CCC[C@@H](NC(=O)c4ccnc(N5CCN(C)CC5)n4)C3)c3c(N)ncnn23)cn1 [Example 851, (R)-N-(1-(7-(6-acetylpyridin-3-yl)-4-aminopyrrolo[2,1-f][1,2,4]triazin-5-yl)piperidin-3-yl)-2-(4-methylpiperazin-1-yl)pyrimidine-4-carboxamide] | 18 nM |
| CN1CCN(c2nccc(C(=O)N[C@@H]3CCCN(c4cc(-c5ccc(-n6cnnn6)c(CO)c5)n5ncnc(N)c45)C3)n2)CC1 [Example 852, (R)-N-(1-(4-amino-7-(3-(hydroxymethyl)-4-(1H-tetrazol-1-yl)phenyl)pyrrolo[2,1-f][1,2,4]triazin-5-yl)piperidin-3-yl)-2-(4-methylpiperazin-1-yl)pyrimidine-4-carboxamide, TFA salt] | 10 nM |
| CN1CCN(c2nccc(C(=O)N[C@@H]3CCCN(c4cc(-c5cc(F)c(-n6cnnn6)cc5F)n5ncnc(N)c45)C3)n2)CC1 [Example 853, (R)-N-(1-(4-amino-7-(2,5-difluoro-4-(1H-tetrazol-1-yl)phenyl)pyrrolo[2,1-f][1,2,4]triazin-5-yl)piperidin-3-y1)-2-(4-methylpiperazin-1-yl)pyrimidine-4-carboxamide] | 12 nM |
| CN1CCN(c2nccc(C(=O)N[C@@H]3CCCN(c4cc(-c5cc(F)c(-n6cnnn6)c(F)c5)n5ncnc(N)c45)C3)n2)CC1 [Example 854] | 1 nM |
| COc1cc(-c2cc(N3CCC[C@@H](NC(=O)c4ccnc(N5CCN(C)CC5)n4)C3)c3c(N)ncnn23)ccc1-n1cnnn1 [Example 855, (R)-N-(1-(4-amino-7-(3-methoxy-4-(1H-tetrazol-1-yl)phenyl)pyrrolo[2,1-f][1,2,4]triazin-5-yl)piperidin-3-yl)-2-(4-methylpiperazin-1-yl)pyrimidine-4-carboxamide] | 14 nM |
